Legend:
[1] = Biliary excretion when administered intravenously at a dose of 5 mg/kg in rats; type: ADME, organism-based; set-up: dose 5 mg/kg, route intravenous; settings: rat, bile, iv, read-out: Biliary excretion
Interstitial collagenase = molecular target: T1, Interstitial collagenase (Homo sapiens, UniProt P03956); assay: Evaluated for inhibitory activity against Human fibroblast collagenase (HFC)
T1 sequence (P03956 whole entry): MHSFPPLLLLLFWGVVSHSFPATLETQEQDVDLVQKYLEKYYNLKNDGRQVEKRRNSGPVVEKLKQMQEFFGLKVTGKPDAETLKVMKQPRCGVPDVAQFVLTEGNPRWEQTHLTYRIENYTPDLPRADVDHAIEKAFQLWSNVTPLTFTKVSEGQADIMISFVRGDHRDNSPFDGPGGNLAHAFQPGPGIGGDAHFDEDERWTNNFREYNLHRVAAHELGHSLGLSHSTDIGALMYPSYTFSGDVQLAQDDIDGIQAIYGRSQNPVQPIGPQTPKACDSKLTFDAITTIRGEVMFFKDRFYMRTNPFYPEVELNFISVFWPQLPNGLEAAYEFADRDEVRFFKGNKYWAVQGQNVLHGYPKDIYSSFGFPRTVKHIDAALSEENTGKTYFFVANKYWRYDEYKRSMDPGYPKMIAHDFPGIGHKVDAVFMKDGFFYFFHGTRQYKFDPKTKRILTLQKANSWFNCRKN

[2] = Plasma half-life in rats; type: ADME, organism-based; settings: rat
[3] = Maximum concentration in portal vein was determined at a concentration of 10 mg/kg in rats; type: ADME, organism-based; set-up: dose 10 mg/kg; settings: rat, portal vein blood
[4] = Plasma half-life was determined; type: ADME, cell-free
[5] = Biliary excretion when administered intravenously at a dose of 2.5 mg/kg in rats; type: ADME, organism-based; set-up: dose 2.5 mg/kg, route intravenous; settings: rat, bile, iv, read-out: Biliary excretion
Rattus norvegicus = species: Rattus norvegicus; assay: Plasma half-life in rats; <MQL; type: ADME, organism-based; settings: in vivo
[6] = Maximum concentration in portal vein was determined at a concentration of 20 mg/kg in rats; type: ADME, organism-based; set-up: dose 20 mg/kg; settings: rat, portal vein blood

Structure (SMILES) | dose excreted [1] | Ki (Interstitial collagenase) | half-life [2] | Cmax [3] | half-life [4] | dose excreted [5] | T1/2 (Rattus norvegicus) | Cmax [6]
COc1ccc(C(=O)CCCCNC(=O)[C@H](Cc2c[nH]c3ccccc23)NC(=O)[C@@H](CC(=O)NO)CC(C)C)cc1 | 74.5% | 2 nM | 2.5 min |  |  |  |  | 
CC(C)C[C@H](CC(=O)NO)C(=O)N[C@@H](Cc1c[nH]c2ccccc12)C(=O)NCCCCOCc1ccccc1 | 99.9% | 2 nM | 27 min |  |  |  |  | 
CSCCCNC(=O)[C@H](Cc1c[nH]c2ccccc12)NC(=O)[C@@H](CC(=O)NO)CC(C)C | 53% | 1 nM | 37 min |  |  |  |  | 
COCCNC(=O)[C@H](Cc1c[nH]c2ccccc12)NC(=O)[C@@H](CC(=O)NO)CC(C)C | 59.2% | 5 nM | 19 min |  |  |  |  | 
CC(C)C[C@H](CC(=O)NO)C(=O)N[C@@H](Cc1c[nH]c2ccccc12)C(=O)NCCSCCN(C)C | 60.8% | 5 nM | 43.7 min | 2800 ng/mL |  |  |  | 
CC(C)C[C@H](CC(=O)NO)C(=O)N[C@@H](Cc1c[nH]c2ccccc12)C(=O)NCC[S+](C)[O-] (stereo not given in full) | 44.8% | 2 nM | 7.4 min |  |  |  |  | 
CSCCNC(=O)[C@H](Cc1c[nH]c2ccccc12)NC(=O)[C@@H](CC(=O)NO)CC(C)C | 27.3% | 5 nM | 32.4 min |  |  |  |  | 
CC(C)C[C@H](CC(=O)NO)C(=O)N[C@@H](Cc1c[nH]c2ccccc12)C(=O)NCCN(C)C | 18.9% | 12 nM |  |  | 21 min |  |  | 
CC(C)C[C@H](CC(=O)NO)C(=O)N[C@@H](Cc1c[nH]c2ccccc12)C(=O)NCCS(N)(=O)=O | 61.3% | 6 nM | 17.6 min |  |  |  |  | 
CC(C)C[C@H](CC(=O)NO)C(=O)N[C@@H](Cc1c[nH]c2ccccc12)C(=O)NCc1ccc(CN(C)C)cc1 |  | 4 nM |  |  |  | 80.7% | <MQL | 
CC(C)C[C@H](CC(=O)NO)C(=O)N[C@@H](Cc1c[nH]c2ccccc12)C(=O)NCCCCN(C)C |  | 3 nM | 26.6 min |  |  | 17.9% |  | 
CC(C)C[C@H](CC(=O)NO)C(=O)N[C@@H](Cc1c[nH]c2ccccc12)C(=O)NCCCCC(=O)O | 108% | 1 nM | 6.9 min |  |  |  |  | 
CC(C)C[C@H](CC(=O)NO)C(=O)N[C@@H](Cc1c[nH]c2ccccc12)C(=O)NCCS(C)(=O)=O | 67.2% | 3 nM | 24 min |  |  |  |  | 
CC(C)C[C@H](CC(=O)NO)C(=O)N[C@@H](Cc1c[nH]c2ccccc12)C(=O)NCCSCCN1CCOCC1 | 30.8% | 4 nM | 42.5 min |  |  |  |  | 
CCSCCNC(=O)[C@H](Cc1c[nH]c2ccccc12)NC(=O)[C@@H](CC(=O)NO)CC(C)C | 46% | 3 nM | 37.6 min |  |  |  |  | 900 ng/mL
CC(C)C[C@H](CC(=O)NO)C(=O)N[C@@H](Cc1c[nH]c2ccccc12)C(=O)NCCSc1ccccc1 | 43.9% | 3 nM | 33.3 min |  |  |  |  | 
CC(C)C[C@H](CC(=O)NO)C(=O)N[C@@H](Cc1c[nH]c2ccccc12)C(=O)NCCCN(C)C | 18.1% | 3 nM | 25 min |  |  |  |  | 
CNC(=O)[C@H](Cc1ccc(OC)cc1)NC(=O)[C@@H](CC(=O)NO)CC(C)C | 84.1% |  | 9 min |  |  |  |  | 

Source: ChEMBL document CHEMBL1128128, “Relationship between structure and bioavailability in a series of hydroxamate based metalloprotease inhibitors” (Bioorg Med Chem Lett, 1995)
